The numbers were not newly measured in US20190269627A1, “MEMANTINE COMBINATIONS AND USE” (Chase Pharmaceuticals Corporation, priority 2016, published 2019), which cites them from elsewhere.

This data set relates to mice. The conditions noted are these: 2 mg/kg.

For `CC12CC3CC(C)(C1)CC(N)(C3)C2` [memantine, 3,5-dimethyladamantan-1-amine], the “effect on scopolamine-induced learning deficits in the water maze” value was “reverses scopolamine-induced learning deficits”.
